One series relates to bacteria. The conditions noted are these: prior-art compounds; cited from earlier work.
A further series has as its system Escherichia coli. Nature of the series: controlling colibacillosis in chicks infected with Escherichia coli, single oral dose. To be noted: 12 days after treatment. Type of series: in vivo, Escherichia coli (in sex-linked pullet chicks). On the procedure: Three groups of 10 five-day old sex-linked pullet chicks are infected parenterally, in the left thoracic air sac, with 0.2 ml. of a 10^-^1 dilution of a Trypticase Soy Broth culture of Escherichia coli, the causative agent of colibacillosis in poultry. The compounds to be tested are administered by gavage as a single oral dose in an aqueous solution or suspension, and the chicks are permitted to feed ad libitum the feed composition prepared in Example 44. Twelve days after treatment, the test is terminated and the number of survivors in each group recorded.
Four groups of 40, five-day old sex-linked pullet chicks are infected in the same manner as herein set forth with Escherichia coli. […] Twelve days after treatment, the test is terminated and the number of survivors in each group recorded.

The subject of another series is Salmonella gallinarum. Nature of the series: controlling fowl typhoid in chicks, medicated feed. To be noted: 10 days. Type of series: in vivo, Salmonella gallinarum (in sex-linked pullet chicks). How it is done:
Groups of five one-day old sex-linked pullet checks are infected orally by gavage with 0.5 ml. of a 10^-^2 dilution of a five-hour Trypticase Soy Broth culture of Salmonella gallinarum, the causative agent of fowl typhoid. Each chick receives approximately 6 × 10^5 viable cells. Medication is administered continuously in the feed, beginning 3 hours before infection and continuing for 10 days, at which time the test is terminated and the number of survivors in each group recorded. Each test utilizes two control groups of chicks, the first group comprising 20 chicks which are infected and untreated, and the second group comprising 10 chicks which are uninfected and untreated. The results of the tests are set forth in the following Table III (in some instances, the results from two or more tests are combined): […]

The next series can be described thus: solubility in water. It is filed as physicochemical.
A short description of series [1]: concentrations of drug in plasma of noninfected mice (agar-diffusion assay). Type of series: in vivo. To be noted: for Cmax: mouse, read-out: Peak concn. in plasma. On the procedure: Concentrations of drug in plasma are determined by assay of blood obtained by heart puncture of noninfected mice. Blood samples (about 0.5 ml. per mouse) from 10 mice receiving the same dose of drug are pooled. The drug is assayed in the plasma by a standard agar-diffusion plate method with Bacillus subtilis (Lederle No. 17) as the test organism.

In series [2] the test system is Pasteurella multocida. Nature of the series: controlling a Pasteurella multocida infection in mice. It is filed as in vivo, Pasteurella multocida (in Swiss Webster female mice). The conditions noted are these: 336 h, 2 mg./mouse by gavage, two weeks post-infection, read-out: Survivors/Total (converted). On the procedure: Swiss Webster, female mice weighing 22±2 g. were infected by intrapeutoneal injection of 0.5 ml. of a 5 hour Trypticase Soy Broth culture containing 10^7 cfu. of P. multocida. Each mouse was given by gavage at the time of infection 2 mg. of the test drug suspended in 0.2% agar.

Series [3] deals with Staphylococcus aureus strain Rose. Nature of the series: antibacterial activity in mice, Tests with Staphylococcus aureus strain Rose. It is filed as in vivo, Staphylococcus aureus (in Carworth Farms CFl-s female mice). To be noted: read-out: Results alive/tested (converted). On the procedure:
(§1) Experiments were conducted to determine the antibacterial activity of compounds of the present invention against Proteus mirabilis, Staphylococus aureus strain Smith and Staphylococcus aureus strain Rose a tetracycline-resistant strain of Staphylococcus aureus. Infection was initiated in Carworth Farms CFl-s female mice (body weight […].) by intra-abdominal infection of 0.5 ml. of the broth dilutions of 5 hour cultures of the above organisms.

Series [4] concerns Pasteurella multocida. Nature of the series: controlling a Pasteurella multocida infection in mice. To be noted: 336 h, two weeks post-infection, read-out: Survivors/Total (converted); for responders at 0.25 mg: 0.25 mg./mouse by gavage; for responders at 0.5 mg: 0.5 mg./mouse by gavage; for responders at 1 mg: 1 mg./mouse by gavage. Type of series: in vivo, Pasteurella multocida (in Swiss Webster female mice).

Series [5] concerns Salmonella choleraesuis var. kunzendorf. Nature of the series: controlling enteritis, mice infected with Salmonella choleraesuis, medicated feed. To be noted: 10 mice tested. It is filed as in vivo.
Experimental: Three groups of ten female Swiss Webster mice weighing 20 gm. are infected intraperitoneally with 0.5 ml. of 10^-^2 dilution of a five-hour Trypticase Soy Broth culture of Salmonella choleraesuis var. kunzendorf, the causitive agent of enteritis in pigs, an organism originally recovered from a field outbreak of Salmonella choleraesuis var. kunzendorf in pigs. Each mouse receives approximately 4.6 × 10^7 cells as the inoculating dose.
The mice are fed a medicated feed, which is a commercial mouse chow containing the compounds to be tested for 3 hours before the infection until 7 days after infection. The mice are held for an additional 7 days after the medication is stopped, and the number of survivors in each group recorded. The medicated feed is prepared by thoroughly admixing calculated amounts of the compounds with commercial mouse chow to provide essentially uniform distribution in the feed offered.
Series [6] relates to Staphylococcus aureus strain Smith. Nature of the series: antibacterial activity in mice, Tests with Staphylococcus aureus strain Smith. Type of series: in vivo, Staphylococcus aureus (in Carworth Farms CFl-s female mice). The conditions noted are these: read-out: Results alive/tested (converted). On the procedure:
as §1

Another series relates to Proteus mirabilis. Nature of the series: antibacterial activity in mice, Tests with Proteus mirabilis. Type of series: in vivo, Proteus mirabilis (in Carworth Farms CFl-s female mice). To be noted: 256 mg/kg. On the procedure: as §1
In series [7] the test system is Salmonella choleraesuis var. kunzendorf. Nature of the series: controlling enteritis caused by Salmonella choleraesuis in swine, medicated feed. It is filed as in vivo, Salmonella choleraesuis var. kunzendorf (in pigs). The source says: In the late afternoon of the day before infection, feed is removed from all pens. The following morning each group receives 2.5 lbs. of feed mixed either with normal broth or broth containing Salmonella choleraesuis variety kunzendorf organisms. […] For the rest of the trial the pigs are observed and graded daily. […] The trial is terminated four weeks after infection.

Where [8] appears, read: 0.006% in feed, 5 chicks tested.
The mark [9] stands for this setting: 0.025% in feed, 5 chicks tested.
Setting [10] is: 0.006% in feed, 10 chicks tested.
The mark [11] stands for this setting: 0.025% in feed, 10 chicks tested.

Like-named read-outs stand apart in the source and are kept apart here.

For the molecule `Cn1c([N+](=O)[O-])cnc1C=NN1CCNC1=O` [1-[(1-methyl-5-nitro-2-imidazolylmethylene)amino]-2-imidazolidinone], in the series with bacteria, the “antibacterial activity, in words” value is on record as “some antibacterial activity”.

Regarding `CC(=O)Nc1nnc(-c2ncc([N+](=O)[O-])n2C)s1` [2-(2-Acetamido-5-thiadiazolyl)-1-methyl-5-nitro-imidazole], the Survivors in the series with Escherichia coli (10 mg/kg single oral dose, 40 chicks tested) worked out at 29; in the series on Escherichia coli (20 mg/kg single oral dose, 40 chicks tested) it was 35; with Escherichia coli (40 mg/kg single oral dose, 40 chicks tested), 39; in the series with Salmonella gallinarum (setting [8]) it was 3; with Salmonella gallinarum (setting [9]) it was 4; with Salmonella gallinarum (0.1% in feed, 5 chicks tested) it was 5.

On to `Cn1c([N+](=O)[O-])cnc1-c1nnc(N)s1` [2-(2-Amino-5-Thiadiazolyl)-1-methyl-5-nitroimidazole], for which the “solubility in water, in words” value in the series “solubility in water” is on record as “relatively insoluble in water”. In series [1] (mice), the “absorption, in words” value is reported as “rapidly absorbed”. The Cmax is 14000 to 18000 ng/mL in [1] (in vivo, 89 mg/kg); less than 1000 ng/mL in [1] (plasma, 0.2 mg/kg); 2000 to 4000 ng/mL in series [1] (plasma, 16 mg/kg); 6000 to 12000 ng/mL in series [1] (plasma, 56 mg/kg).

For the molecule `CCn1c([N+](=O)[O-])cnc1-c1nnc(N)o1` [2-(2-Amino-5-oxadiazolyl)-1-ethyl-5-nitroimidazole], the responders at 2 mg in the series on Pasteurella multocida [2] was 80%. In [3], the responders at 512 mg/kg was 100%. Also, the Survivors is on record as 3 in the series on Salmonella gallinarum (setting [8]); 5 in the series with Salmonella gallinarum (setting [9]); 10 in the series with Salmonella gallinarum (0.1% in feed, 10 chicks tested).

Regarding `Cn1c([N+](=O)[O-])cnc1-c1nnc(N)o1` [2-(2-Amino-5-oxadiazolyl)-1-methyl-5-nitroimidazole], the Survivors is recorded as 7 with Escherichia coli (5 mg/kg single oral dose, 20 chicks tested); 13 with Escherichia coli (20 mg/kg single oral dose, 20 chicks tested); 15 in the series with Escherichia coli (80 mg/kg single oral dose, 20 chicks tested); 9 in the series with Salmonella gallinarum (setting [10]); 10 with Salmonella gallinarum (setting [11]); 10 in the series with Salmonella gallinarum (0.1% in feed, 10 chicks tested). The responders at 0.25 mg in the series with Pasteurella multocida [4] was 10%. Further, the responders at 0.5 mg with Pasteurella multocida [4] was 15%. For the same molecule, in the series on Pasteurella multocida [4], the responders at 1 mg was 40%. Moreover, the responders at 2 mg with Pasteurella multocida [2] was 70%. For the same molecule, the responders at 512 mg/kg in series [3] was 100%.

On to `CCn1c([N+](=O)[O-])cnc1-c1nnc(N)s1` [2-(2-Amino-5-thiadiazolyl)-1-ethyl-5-nitroimidazole], for which, in the series with Pasteurella multocida [2], the responders at 2 mg was 100%. For the same molecule, the responders at 512 mg/kg in [3] is 100%. The Survivors was determined as 9 with Salmonella gallinarum (setting [11]); 10 in the series with Salmonella gallinarum (0.1% in feed, 10 chicks tested); 3 in [5] (0.025% in mouse chow); 9 in series [5] (0.1 % in mouse chow).

As for `CN(C)c1nnc(-c2ncc([N+](=O)[O-])n2C)o1` [2-(2-Dimethylamino-5-oxadiazolyl)-1-methyl-5-nitroimidazole], the responders at 512 mg/kg in series [3] was 100%. Also, the Survivors turned out to be 2 with Salmonella gallinarum (setting [10]); 9 in the series with Salmonella gallinarum (setting [11]); 9 in the series with Salmonella gallinarum (0.1% in feed, 10 chicks tested).

In the case of `CN(C)c1nnc(-c2ncc([N+](=O)[O-])n2C)s1` [2-(2-Dimethylamino-5-thiadiazolyl)-1-methyl-5-nitroimidazole], the responders at 512 mg/kg in [6] (512 mg/kg) is 80%. The same molecule showed a Survivors in the series on Salmonella gallinarum (0.1% in feed, 5 chicks tested) of 4.

For the molecule `Cn1c([N+](=O)[O-])cnc1-c1nnc(NC=O)s1` [2-(2-Formamido-5-Thiadiazolyl)-1-methyl-5-nitroimidazole], in the series with Pasteurella multocida [4], the responders at 0.25 mg was 80%, the responders at 0.5 mg was 100% and the responders at 1 mg was 90%. In series [6], the responders at 64 mg/kg is 100%. In addition, the responders at 2 mg in the series on Pasteurella multocida [2] was 100%. Also, the responders at 512 mg/kg in [3] was 100%. In the series on Salmonella gallinarum (0.006% in feed, 15 chicks tested), this molecule yielded a Survivors of 9. The molecule further registered a Survivors in the series with Salmonella gallinarum (0.025% in feed, 15 chicks tested) of 11. This molecule also had a Survivors in the series on Salmonella gallinarum (0.1% in feed, 10 chicks tested) of 5.

Take `CNc1nnc(-c2ncc([N+](=O)[O-])n2C)s1` [2-(2-Methylamino-5-thiadiazolyl)-1-methyl-5-nitroimidazole]: the Results alive/tested with Proteus mirabilis is 4/5. Moreover, in series [3], the responders at 512 mg/kg was 80%. This molecule came in with a Survivors with Salmonella gallinarum (0.1% in feed, 5 chicks tested) of 3.

`Cn1c([N+](=O)[O-])cnc1-c1nnc(N2CCNCC2)s1` [2-[2-(1-Piperazinyl)-5-thiadiazolyl]-1-methyl-5-nitroimidazole]: the Survivors amounted to 6 with Escherichia coli (40 mg/kg single oral dose, 20 chicks tested); 18 with Escherichia coli (160 mg/kg single oral dose, 20 chicks tested); 1 in the series with Salmonella gallinarum (setting [11]); 8 in the series with Salmonella gallinarum (0.1% in feed, 10 chicks tested). Further, in the series on Pasteurella multocida [2], the responders at 2 mg is 10%.

Take `CN(C)CCCN1CCN(c2nnc(-c3ncc([N+](=O)[O-])n3C)s2)CC1` [2-{2-[4-(3-Dimethylaminopropyl)-1-piperazinyl]-5-thiadiazolyl}-1-methyl-5-nitroimidazole]: the responders at 256 mg/kg in series [6] is 60%. Further, in the series with Pasteurella multocida [2], the responders at 2 mg is 100%.

As for `CN(C)C=Nc1nnc(-c2ncc([N+](=O)[O-])n2C)s1` [2-{2-[ (Dimethylaminomethylene)amino]-5-thiadiazolyl} -1-methyl-5-nitroimidazole], in the series with Pasteurella multocida [4], the responders at 0.25 mg is 80%, the responders at 0.5 mg was 97.5% and the responders at 1 mg was 93.3%. In the series on Proteus mirabilis, the Results alive/tested is recorded as 3/5. Further, the responders at 64 mg/kg in series [6] was 100%. Besides, the responders at 2 mg in the series with Pasteurella multocida [2] is 100%. The molecule also returned a Survivors with Salmonella gallinarum (0.05% in feed, 5 chicks tested) of 5. The Survivors with Salmonella gallinarum (0.1% in feed, 5 chicks tested) was determined as 5.

For the molecule `CCOC(=O)N1CCN(c2nnc(-c3ncc([N+](=O)[O-])n3C)s2)CC1` [2[2-(4-Carbethoxy-1-piperazinyl)-5-thiadiazolyl]-1-methyl-5-nitroimidazole], the responders at 256 mg/kg in series [6] was 80%.

As for `Cn1c([N+](=O)[O-])cnc1C=NN1CCOC1=O` [3-[(1-methyl-5-nitro-2-imidazolylmethylene)amino]-2-oxazolidinone], the “antibacterial activity, in words” value in the series with bacteria is on record as “some antibacterial activity”.

With `O=C1OCCN1/N=C/c1ccc([N+](=O)[O-])o1` [Furazolidone], the “Median Survival Time” value in [7] (50 ppm in diet) turned out to be 6.8 days; in series [7] (200 ppm in diet) it was 10.0 days. Moreover, the “Survivors Per Total” value in [7] (50 ppm in diet ([…] per day nitroimidazole, 2.1 furazolidone)) was 0/10; in series [7] (200 ppm in diet (12.3 mg/kg per day nitroimidazole, 7.5 furazolidone), *9/10 differs significantly from infected-untreated (P<.01)), 2/10.

(Values after US3991200A, “Substituted nitroimidazolyl thiadiazoles and oxadiazoles as antibacterial agents and growth promoting compounds” (American Cyanamid Company, priority 1973, dated 1976).)
